We go through 19 molecules from patent publication US6441006B2, “Pharmaceutical compositions and methods for use” (Targacept, Inc., priority 1998, dated 2002).

Experiment [1] relates to ganglia-type nicotinic acetylcholine receptors. The experiment in a line: Interaction with ganglion receptors. The experiment is classed as cell-based. The conditions noted are these: Emax, percentage of maximal activation induced by (S)-(-)-nicotine. The procedure: (§1) The determination of the interaction of the compounds with ganglionic receptors was carried out in accordance with the techniques described in U.S. Pat. No. 5,597,919 to Dull et al. The maximal activation for individual compounds (Emax) was determined as a percentage of the maximal activation induced by (S)-(−)-nicotine. Reported Emax values represent the amount released relative to (S)-(−)-nicotine on a percentage basis. […] Such preferable compounds have the capability to activate human CNS receptors without activating ganglia-type nicotinic acetylcholine receptors. Thus, there is provided a therapeutic window for utilization in the treatment of CNS disorders. […] The compounds begin to cause effects at ganglia only when employed in amounts of many times those required to activate dopamine release.
The determination of the interaction of the compounds with ganglionic receptors was carried out in accordance with the techniques described in U.S. Pat. No. 5,597,919 to Dull et al. The maximal activation for individual compounds (Emax) was determined as a percentage of the maximal activation induced by (S)-(−)-nicotine. Reported Emax values represent the amount released relative to (S)-(−)-nicotine on a percentage basis.

The target in experiment [2] is T1, muscle-type nicotinic acetylcholine receptors (Homo sapiens, UniProt P02708+P07510+Q07001).
T1 construct: endogenous in cells; host or cells: TE671/RD (own knowledge of the cited US 5,597,919)
T1 sequence (P02708 21-457): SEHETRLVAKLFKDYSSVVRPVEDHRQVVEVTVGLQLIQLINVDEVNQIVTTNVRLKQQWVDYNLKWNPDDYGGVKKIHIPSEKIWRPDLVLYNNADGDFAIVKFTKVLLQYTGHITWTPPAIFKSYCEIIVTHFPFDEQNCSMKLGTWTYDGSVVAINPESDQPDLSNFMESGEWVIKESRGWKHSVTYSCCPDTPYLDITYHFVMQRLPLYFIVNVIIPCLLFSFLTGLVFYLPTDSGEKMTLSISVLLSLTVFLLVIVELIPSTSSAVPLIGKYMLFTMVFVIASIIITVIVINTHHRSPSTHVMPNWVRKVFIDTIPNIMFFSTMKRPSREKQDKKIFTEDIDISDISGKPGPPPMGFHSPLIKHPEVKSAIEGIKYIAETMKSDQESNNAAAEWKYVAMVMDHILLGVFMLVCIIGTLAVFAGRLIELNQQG
T1 sequence (P11230 24-501 partner): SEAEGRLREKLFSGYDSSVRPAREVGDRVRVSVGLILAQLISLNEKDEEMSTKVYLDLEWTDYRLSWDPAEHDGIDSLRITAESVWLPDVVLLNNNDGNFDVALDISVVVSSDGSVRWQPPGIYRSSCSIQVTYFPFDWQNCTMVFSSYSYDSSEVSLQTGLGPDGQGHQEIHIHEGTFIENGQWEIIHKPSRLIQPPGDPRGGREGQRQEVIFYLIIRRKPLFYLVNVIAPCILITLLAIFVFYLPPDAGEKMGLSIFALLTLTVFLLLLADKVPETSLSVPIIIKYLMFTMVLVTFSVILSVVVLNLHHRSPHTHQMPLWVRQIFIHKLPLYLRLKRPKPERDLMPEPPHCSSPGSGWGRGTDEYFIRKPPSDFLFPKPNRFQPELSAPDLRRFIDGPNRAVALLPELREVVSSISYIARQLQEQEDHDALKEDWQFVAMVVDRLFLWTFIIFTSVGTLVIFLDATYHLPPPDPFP
T1 sequence (Q07001 22-517): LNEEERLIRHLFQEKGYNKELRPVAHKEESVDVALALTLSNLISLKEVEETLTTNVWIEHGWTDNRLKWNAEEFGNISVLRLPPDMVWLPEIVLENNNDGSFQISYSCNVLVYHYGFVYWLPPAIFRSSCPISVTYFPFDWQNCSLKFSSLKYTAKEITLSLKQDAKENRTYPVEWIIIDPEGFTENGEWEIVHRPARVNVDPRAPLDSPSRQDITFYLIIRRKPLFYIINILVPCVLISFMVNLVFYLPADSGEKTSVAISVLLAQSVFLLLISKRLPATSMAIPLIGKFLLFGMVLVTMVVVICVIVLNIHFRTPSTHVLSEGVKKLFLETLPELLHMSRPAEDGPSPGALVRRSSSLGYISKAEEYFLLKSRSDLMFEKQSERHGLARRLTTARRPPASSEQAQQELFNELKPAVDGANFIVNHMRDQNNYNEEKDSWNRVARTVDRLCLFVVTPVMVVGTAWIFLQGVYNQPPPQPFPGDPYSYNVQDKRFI
T1 sequence (P07510 23-517): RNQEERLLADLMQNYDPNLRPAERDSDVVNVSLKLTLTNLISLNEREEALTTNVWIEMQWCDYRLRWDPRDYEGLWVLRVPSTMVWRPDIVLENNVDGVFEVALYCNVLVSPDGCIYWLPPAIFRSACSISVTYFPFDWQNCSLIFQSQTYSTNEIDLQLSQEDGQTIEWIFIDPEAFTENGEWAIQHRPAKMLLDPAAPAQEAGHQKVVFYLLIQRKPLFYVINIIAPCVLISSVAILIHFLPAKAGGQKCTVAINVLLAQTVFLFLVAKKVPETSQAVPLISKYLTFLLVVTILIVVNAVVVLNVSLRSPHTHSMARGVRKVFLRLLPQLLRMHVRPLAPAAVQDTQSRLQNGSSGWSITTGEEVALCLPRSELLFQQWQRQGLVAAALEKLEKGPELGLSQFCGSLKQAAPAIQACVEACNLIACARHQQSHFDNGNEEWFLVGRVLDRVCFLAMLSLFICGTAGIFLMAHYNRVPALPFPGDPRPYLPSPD
Briefly: Interaction with muscle receptors. The conditions noted are these: Emax, percentage of maximal activation induced by (S)-(-)-nicotine. It is filed as cell-based. The procedure:
as §1, with “muscle” for “ganglionic”, “muscle-type” for “ganglia-type”, “cause muscle” for “cause”, “effects” for “effects at ganglia”

The target in another experiment is T2, CNS nicotinic receptors (Rattus norvegicus, UniProt P09483+P12390).
T2 construct: Ki
T2 sequence (P09483 31-630): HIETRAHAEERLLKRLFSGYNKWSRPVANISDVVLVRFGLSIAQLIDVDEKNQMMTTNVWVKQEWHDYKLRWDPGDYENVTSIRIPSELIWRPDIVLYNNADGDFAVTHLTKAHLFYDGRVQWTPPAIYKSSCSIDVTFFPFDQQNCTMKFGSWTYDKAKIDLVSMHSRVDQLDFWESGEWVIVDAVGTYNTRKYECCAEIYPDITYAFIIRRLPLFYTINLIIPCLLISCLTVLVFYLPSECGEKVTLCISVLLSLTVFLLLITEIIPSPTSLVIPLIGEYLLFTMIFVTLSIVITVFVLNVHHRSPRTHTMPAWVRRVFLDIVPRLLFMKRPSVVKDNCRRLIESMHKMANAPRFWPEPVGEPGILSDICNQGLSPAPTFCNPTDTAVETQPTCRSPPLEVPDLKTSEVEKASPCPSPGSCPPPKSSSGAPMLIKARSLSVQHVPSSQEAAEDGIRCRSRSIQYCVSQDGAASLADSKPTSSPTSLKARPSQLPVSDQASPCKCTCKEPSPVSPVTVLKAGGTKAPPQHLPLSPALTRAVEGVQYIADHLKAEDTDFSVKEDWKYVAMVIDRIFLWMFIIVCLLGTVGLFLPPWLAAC
T2 sequence (P12390 25-500): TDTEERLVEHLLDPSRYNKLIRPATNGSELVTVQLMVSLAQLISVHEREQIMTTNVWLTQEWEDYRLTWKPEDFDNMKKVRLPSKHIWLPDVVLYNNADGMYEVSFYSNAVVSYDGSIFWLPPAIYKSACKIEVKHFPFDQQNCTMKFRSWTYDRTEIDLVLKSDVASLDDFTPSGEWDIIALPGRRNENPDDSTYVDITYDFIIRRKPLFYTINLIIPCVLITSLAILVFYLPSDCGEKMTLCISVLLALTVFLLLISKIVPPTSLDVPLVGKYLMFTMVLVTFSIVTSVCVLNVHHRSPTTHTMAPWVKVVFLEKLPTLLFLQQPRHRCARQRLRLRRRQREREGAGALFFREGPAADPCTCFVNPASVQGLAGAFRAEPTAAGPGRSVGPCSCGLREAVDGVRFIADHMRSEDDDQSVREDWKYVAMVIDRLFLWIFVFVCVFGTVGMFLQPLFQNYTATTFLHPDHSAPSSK
The experiment in a line: Binding to relevant receptor sites. The conditions noted are these: calculated from IC50 values using the method of Cheng et al. The procedure:
Binding of the compounds to relevant receptor sites was determined in accordance with the techniques described in U.S. Pat. No. 5,597,919 to Dull et al. Inhibition constants (Ki values), reported in nM, were calculated from the IC50 values using the method of Cheng et al., Biochem, Pharmacol. 22:3099 (1973).

For the next experiment, the system named is Rat brain synaptosomes. Briefly: Neurotransmitter release from brain synaptosomes. The experiment is classed as biochemical. Particulars: in the presence of 10 µM of ligand; percentage of release obtained with 10 µM (S)-(-)-nicotine or 300 µM TMA. The procedure:
Neurotransmitter release was measured using techniques similar to those previously published (Bencherif M, et al. JPET 279: 1413-1421, 1996).
Rat brain synaptosomes were prepared as follows: Female Sprague Dawley rats (100-200 g) were killed by decapitation after anesthesia with 70% CO2. Brains are dissected, and hippocampus, striatum, and thalamus isolated, and homogenized in 0.32 M sucrose containing 5 mM HEPES pH 7.4 using a glass/glass homogenizer. The tissue was then centrifuged for 1000×g for 10 minutes and the pellet discarded. The supernatant was centrifuged at 12000×g for 20 minutes. The resultant pellet was re-suspended in perfusion buffer (128 mM NaCl, 1.2 mM KH2PO4, 2.4 mM KCl, 3.2 mM CaCl2, 1.2 mM MgSO4, 25 mM HEPES, 1 mM Ascorbic acid, 0.01 mM pargyline HCl and 10 mM glucose pH 7.4) and centrifuged for 15 minutes at 25000×g. The final pellet was resuspended in perfusion buffer and placed in a water bath (37° C.) for 10 minutes. Radiolabeled neurotransmitter is added (30 L^3H DA, 20 L^3H NE, 10 L^3H glutamate) to achieve a final concentration of 100 nM, vortexed and placed in a water bath for additional 10 minutes. Tissue-loaded filters is placed onto 11-mm diameter Gelman A/E filters on an open-air support. After a 10-minute wash period, fractions are collected to establish the basal release and agonist applied in the perfusion stream. Further fractions were collected after agonist application to re-establish the baseline. The perfusate was collected directly into scintillation vials and released radioactivity was quantified using conventional liquid scintillation techniques. Release of neurotransmitter was determined in the presence of […] of various ligands and was expressedas a percentage of release obtained with a concentration of 10 M (S)-(−)-nicotine or 300 MTMA resulting in maximal effects.

For “4-(3-Pyridyloxy)butylamine Hemigalactarate [Example 12]”, the “effect at ganglia sites” value in experiment [1] is reported as 11%. For the same molecule, in experiment [2], the “effect at muscle sites” value is recorded as 0%. For the same molecule, at CNS nicotinic receptors, the Ki is 232 nM. In addition, the neurotransmitter release in the experiment on Rat brain synaptosomes was 100%.

For “Methyl(4-(3-pyridyloxy)butyl)amine Hemigalactarate [Example 13]”, the Ki at CNS nicotinic receptors was 5520 nM. For the same molecule, the neurotransmitter release with Rat brain synaptosomes came out at 56%.

In the case of “Methyl(3-(5-isopropoxy-3-pyridyloxy)propyl)amine Monogalactarate [Example 18]”, the “effect at ganglia sites” value in experiment [1] is reported as 0%. In experiment [2], the “effect at muscle sites” value was 22%. Besides, the Ki at CNS nicotinic receptors was 21 nM. Moreover, the neurotransmitter release in the experiment on Rat brain synaptosomes is 36%.

Turning to “(3-(5-Chloro(3-pyridyloxy))-1-methylpropyl)methylamine Hemigalactarate [Example 27]”, at CNS nicotinic receptors, the Ki was 1600 nM. Also, the neurotransmitter release with Rat brain synaptosomes is 30%.

Consider “Methyl(2-(3-pyridyloxy)ethyl)amine Hemigalactarate [Example 8]”, for which the “effect at ganglia sites” value in experiment [1] turned out to be 0%. For the same molecule, the “effect at muscle sites” value in experiment [2] worked out at 0%. Besides, on CNS nicotinic receptors, the Ki is 65 nM. The neurotransmitter release with Rat brain synaptosomes came to 143%.

For the molecule “Methyl(3-(2-methyl(3-pyridyloxy))propyl)amine Hemigalactarate [Example 21]”, the “effect at ganglia sites” value in experiment [1] turned out to be 15%. The “effect at muscle sites” value in experiment [2] is given as 0%. In addition, at CNS nicotinic receptors, the Ki was 236 nM. Moreover, the neurotransmitter release in the experiment on Rat brain synaptosomes was 69%.

As to `CC(C)NCCCOc1cccnc1` [Example 23, (Methylethyl)(3-(3-pyridyloxy)propyl)amine], the inhibitory constant (Ki) on CNS nicotinic receptors was 8500 nM. For the same molecule, the neurotransmitter release in the experiment on Rat brain synaptosomes amounted to 16%.

For the molecule “(2-(5-Bromo(3-pyridylthio))ethyl)methylamine Hemigalactarate [Example 38]”, the Ki on CNS nicotinic receptors was 3400 nM.

Turning to “Dimethyl(4-(3-pyridyloxy)butyl)amine Hemigalactarate [Example 14]”, on CNS nicotinic receptors, the inhibition constant Ki is 3410 nM. For the same molecule, the neurotransmitter release in the experiment with Rat brain synaptosomes amounted to 24%.

With “Dimethyl(3-(3-(methylamino)propoxy)phenyl)amine Hemigalactarate [Example 31]”, on CNS nicotinic receptors, the Ki was 10000 nM. In addition, the neurotransmitter release in the experiment with Rat brain synaptosomes was 16%.

In the case of “2-(3-Pyridyloxy)ethylamine Hemigalactarate [Example 7]”, on CNS nicotinic receptors, the Ki was 1600 nM. Moreover, in the experiment with Rat brain synaptosomes, the neurotransmitter release is 30%.

In the case of “Methyl(3-(6-methyl(3-pyridyloxy))propyl)amine Hemigalactarate [Example 20]”, the “effect at muscle sites” value in experiment [2] amounted to 0%. Moreover, on CNS nicotinic receptors, the Ki is 12 nM. In addition, in the experiment on Rat brain synaptosomes, the neurotransmitter release turned out to be 77%.

“3-(3-Pyridyloxy)propylamine Hemigalactarate [Example 10]”: the “effect at ganglia sites” value in experiment [1] was 0%. Moreover, in experiment [2], the “effect at muscle sites” value turned out to be 0%. In addition, the neurotransmitter release in the experiment with Rat brain synaptosomes is on record as 0%.

As to “Methyl(3-tricyclo[7.3.1.0<5,13>]tridec-2-yloxypropyl)amine Hemigalactarate [Example 32]”, at CNS nicotinic receptors, the Ki is 100000 nM.

As to “(3-Benzo[3,4-d]1,3-dioxolan-5-yloxypropyl)methylamine Hemigalactarate [Example 34]”, the Ki at CNS nicotinic receptors is 16600 nM. The neurotransmitter release in the experiment on Rat brain synaptosomes stood at 41%.

With `CN(C)CCOc1cccnc1` [Example 9, Dimethyl(2-(3-pyridyloxy)ethylamine Hemigalactarate], the “effect at ganglia sites” value in experiment [1] is 0%. In experiment [2], the “effect at muscle sites” value came to 0%. Also, the neurotransmitter release with Rat brain synaptosomes came out at 0%.

Regarding “3-(3-Aminopropoxy)phenylamine Hemigalactarate [Example 29]”, the Ki at CNS nicotinic receptors was 442 nM. Also, in the experiment on Rat brain synaptosomes, the neurotransmitter release is reported as 14%.

Consider `c1ccc(CNCCCOc2cccnc2)cc1` [Example 24, Benzyl(3-(3-pyridyloxy)propyl)amine], for which the neurotransmitter release with Rat brain synaptosomes worked out at 29%.

For “(3-(5-Bromo(3-pyridyloxy))propyl)methylamine Hemigalactarate [Example 6]”, at CNS nicotinic receptors, the Ki was 44 nM.
